Target: T1, 11β-HSD1 (Homo sapiens, UniProt P28845)
T1 construct: detecting cortisol generated from cortisterone by human liver microsomes; from tissue; host or cells: human liver microsomes
Test: In vitro inhibition of 11β-HSD1, HTRF detection of cortisol generated from cortisone by human liver microsomes
Type: biochemical
Conditions: 11β-HSD IC50 (nM), 1 hour at 37° C., pH 6.0, NADPH 200 μM, cortisone 80 nM, inhibition relative to carbenoxolone signal
Outline: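 Inhibition expressed against the carbenoxolone signal and fitted to IC50 curves. Readout: HTRF competition between microsomal cortisol and XL665-labelled cortisol for Eu-cryptate anti-cortisol antibody (typically 2 h), with emission ratio 665/615 calibrated to cortisol concentration.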

T1 sequence (P28845 whole entry): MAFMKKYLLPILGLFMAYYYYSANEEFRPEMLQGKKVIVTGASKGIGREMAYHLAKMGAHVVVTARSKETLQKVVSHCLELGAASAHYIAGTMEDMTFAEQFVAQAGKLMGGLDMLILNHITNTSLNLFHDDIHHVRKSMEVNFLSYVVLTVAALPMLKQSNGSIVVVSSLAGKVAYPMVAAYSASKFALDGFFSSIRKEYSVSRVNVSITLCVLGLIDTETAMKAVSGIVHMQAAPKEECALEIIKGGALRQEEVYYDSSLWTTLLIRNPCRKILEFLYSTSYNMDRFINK

First: CC1(C)[C@H]2Cc3ccc(O)cc3[C@]1(C)CCN2C(=O)c1ccc2nc[nH]c2c1 [Example 80, (3H-Benzoimidazol-5-yl)-[(2R,6S)-8-hydroxy-6,11,11-trimethyl-1,2,5,6-tetrahydro-4H-2,6-methano-benzo[d]azocin-3-yl]-methanone]
Second: CCC12CCN(C(=O)c3ccc4nc[nH]c4c3)C(Cc3ccc(O)cc31)C2(C)C (centres unmarked) [Example 89, (3H-Benzoimidazol-5-yl)-(6-ethyl-8-hydroxy-11,11-dimethyl-1,2,5,6-tetrahydro-4H-2,6-methano-benzo[d]azocin-3-yl)-methanone]
The IC50 of the first is 1.6-fold lower: 40 nM for the first, 62 nM for the second. The first is the more potent here.

First: Cn1cnc2ccc(C(=O)N3CC[C@@]4(C)c5cccc(O)c5C[C@@H]3C4(C)C)cc21 [Example 81, [(2R,6S)-10-Hydroxy-6,11,11-trimethyl-1,2,5,6-tetrahydro-4H-2,6-methano-benzo[d]azocin-3-yl]-(3-methyl-3H-benzoimidazol-5-yl)-methanone]
Second: CC1(C)[C@H]2Cc3c(O)cccc3[C@]1(C)CCN2C(=O)c1ccc(CN)cc1 [Example 117, (4-Aminomethyl-phenyl)-[(2R,6S)-10-hydroxy-6,11,11-trimethyl-1,2,5,6-tetrahydro-4H-2,6-methano-benzo[d]azocin-3-yl]-methanone]
The IC50 of the first is 3.1-fold lower: 463 nM for the first, 1420 nM for the second.

Compared with `C[C@@H]1[C@H]2Cc3ccc(C#N)cc3[C@]1(C)CCN2C(=O)c1ccc2nc[nH]c2c1` [Example 84, (2R,6R,11S)-3-(3H-Benzoimidazole-5-carbonyl)-6,11-dimethyl-1,2,3,4,5,6-hexahydro-2,6-methano-benzo[d]azocine-8-carbonitrile], `CCOC(=O)c1ccc2c(c1)[C@]1(C)CCN(C(=O)c3ccc4nc[nH]c4c3)[C@H](C2)[C@H]1C` [Example 91, (2R,6R,11S)-3-(3H-Benzoimidazole-5-carbonyl)-6,11-dimethyl-1,2,3,4,5,6-hexahydro-2,6-methano-benzo[d]azocine-8-carboxylic acid ethyl ester] is 5.1-fold higher in IC50: 139 nM for the first, 711 nM for the second. The first is the more potent here.

First: CCCC12CCN(C(=O)c3ccc4nc[nH]c4c3)C(Cc3ccc(O)cc31)C2 (centres unmarked) [Example 88, (3H-Benzoimidazol-5-yl)-(8-hydroxy-6-propyl-1,2,5,6-tetrahydro-4H-2,6-methano-benzo[d]azocin-3-yl)-methanone]
Second: CCC12CCN(C(=O)c3ccc4nc[nH]c4c3)C(Cc3ccc(O)cc31)C2 (centres unmarked) [Example 90, (3H-Benzoimidazol-5-yl)-(6-ethyl-8-hydroxy-1,2,5,6-tetrahydro-4H-2,6-methano-benzo[d]azocin-3-yl)-methanone]
The IC50 of the first is 2.7-fold lower: 171 nM for the first, 468 nM for the second.

First: CC12CCN(C(=O)c3ccc4ncsc4c3)C(Cc3ccc(O)cc31)C2 (centres unmarked) [Example 92, benzothiazol-6-yl-(8-hydroxy-6-methyl-1,2,5,6-tetrahydro-4H-2,6-methano-benzo[d]azocin-3-yl)-methanone]
Second: COC(=O)C12CCN(C(=O)c3ccc4ncsc4c3)C(Cc3ccc(O)cc31)C2 (centres unmarked) [Example 94, 3-(Benzothiazole-6-carbonyl)-8-hydroxy-2,3,4,5-tetrahydro-1H-2,6-methano-benzo[d]azocine-6-carboxylic acid methyl ester]
The IC50 of the first is 6.1-fold lower: 1110 nM for the first, 6720 nM for the second.

Going from `CC1(C)[C@H]2Cc3c(C#N)cccc3[C@]1(C)CCN2C(=O)c1ccc2nc[nH]c2c1` [Example 93, (2R,6S)-3-(3H-Benzoimidazole-5-carbonyl)-6,11,11-trimethyl-1,2,3,4,5,6-hexahydro-2,6-methano-benzo[d]azocine-10-carbonitrile] to `CC12CCN(C(=O)c3ccc4nc[nH]c4c3)C(Cc3cc(C#N)ccc31)C2(C)C` (centres unmarked) [Example 96, 3-(1H-Benzoimidazole-5-carbonyl)-6,11,11-trimethyl-1,2,3,4,5,6-hexahydro-2,6-methano-benzo[d]azocine-9-carbonitrile], the IC50 falls from 2060 nM to 95 nM (22-fold). The second is the more potent here.

Going from `CCOC(=O)c1cccc2c1C[C@H]1N(C(=O)c3ccc4nc[nH]c4c3)CC[C@]2(C)C1(C)C` [Example 95, (2R,6S)-3-(1H-Benzoimidazole-5-carbonyl)-6,11,11-trimethyl-1,2,3,4,5,6-hexahydro-2,6-methano-benzo[d]azocine-10-carboxylic acid ethyl ester] to `CCOC(=O)c1ccc2c(c1)CC1N(C(=O)c3ccc4nc[nH]c4c3)CCC2(C)C1(C)C` (centres unmarked) [Example 97, 3-(1H-Benzoimidazole-5-carbonyl)-6,11,11-trimethyl-1,2,3,4,5,6-hexahydro-2,6-methano-benzo[d]azocine-9-carboxylic acid ethyl ester], the IC50 falls from 3840 nM to 1130 nM (3.4-fold).

Going from `CC1(C)[C@H]2Cc3cc(-c4ccccc4)ccc3[C@]1(C)CCN2C(=O)c1ccc2nc[nH]c2c1` [Example 102, (3H-Benzoimidazol-5-yl)-[(2R,6S)-6,11,11-trimethyl-9-phenyl-1,2,5,6-tetrahydro-4H-2,6-methano-benzo[d]azocin-3-yl]-methanone] to `COC12CCN(C(=O)c3ccc4nc[nH]c4c3)C(Cc3ccccc31)C2(C)C` (centres unmarked) [Example 103, (3H-Benzoimidazol-5-yl)-(6-methoxy-11,11-dimethyl-1,2,5,6-tetrahydro-4H-2,6-methano-benzo[d]azocin-3-yl)-methanone], the IC50 falls from 1460 nM to 86 nM (17-fold).

Compared with `COc1cccc2c1C[C@H]1N(C(=O)c3ccoc3C)CC[C@]2(C)C1(C)C` [Example 104, [(2R,6S)-10-Methoxy-6,11,11-trimethyl-l,2,5,6-tetrahydro-4H-2,6-methano-benzo[d]azocin-3-yl]-(2-methyl-furan-3-yl)-methanone], `CC1(C)[C@H]2Cc3c(O)cccc3[C@]1(C)CCN2C(=O)c1c[nH]c2ccccc12` [Example 118, [(2R,6S)-10-Hydroxy-6,11,11-trimethyl-1,2,5,6-tetrahydro-4H-2,6-methano-benzo[d]azocin-3-yl]-(1H-indol-3-yl)-methanone] is 19-fold lower in IC50: 1390 nM for the first, 72 nM for the second. The second is the more potent here.

Compared with `CC1C2Cc3ccc(O)cc3C1(C)CCN2C(=O)c1ccccc1` (centres unmarked) [Example 105, (8-Hydroxy-6,11-dimethyl-1,2,5,6-tetrahydro-4H-2,6-methano-benzo[d]azocin-3-yl)-phenyl-methanone], `Cc1ccccc1C(=O)N1CCC2(C)c3cc(O)ccc3CC1C2C` (centres unmarked) [Example 106, (8-Hydroxy-6,11-dimethyl-1,2,5,6-tetrahydro-4H-2,6-methano-benzo[d]azocin-3-yl)-o-tolyl-methanone] is 2.2-fold higher in IC50: 1330 nM for the first, 2960 nM for the second. The first is the more potent here.

First: COc1ccc2c(c1)[C@]1(C)CCN(C(=O)c3cccnc3)[C@H](C2)[C@@H]1C [Example 107, [(2R,6R,11R)-8-Methoxy-6,11-dimethyl-1,2,5,6-tetrahydro-4H-2,6-methano-benzo[d]azocin-3-yl]-pyridin-3-yl-methanone]
Second: COc1ccc2c(c1)[C@]1(C)CCN(C(=O)c3ccccc3C)[C@H](C2)[C@@H]1C [Example 109, [(2R,6R,11R)-8-Methoxy-6,11-dimethyl-1,2,5,6-tetrahydro-4H-2,6-methano-benzo[d]azocin-3-yl]-o-tolyl-methanone]
The IC50 of the first is 1.7-fold higher: 2550 nM for the first, 1460 nM for the second. The second is the more potent here.

Compared with `COc1ccc2c(c1)[C@]1(C)CCN(C(=O)c3ccccc3[N+](=O)[O-])[C@H](C2)[C@@H]1C` [Example 108, [(2R,6R,11R)-8-Methoxy-6,11-dimethyl-1,2,5,6-tetrahydro-4H-2,6-methano-benzo[d]azocin-3-yl]-(2-nitro-phenyl)-methanone], `C[C@H]1[C@H]2Cc3ccc(O)cc3[C@]1(C)CCN2C(=O)c1ccccc1[N+](=O)[O-]` [Example 115, [(2R,6R,11R)-8-Hydroxy-6,11-dimethyl-1,2,5,6-tetrahydro-4H-2,6-methano-benzo[d]azocin-3-yl]-(2-nitro-phenyl)-methanone] is 11-fold higher in IC50: 140 nM for the first, 1590 nM for the second. The first is the more potent here.

`COc1ccc2c(c1)[C@]1(C)CCN(C(=O)c3occc3C)[C@H](C2)[C@@H]1C` [Example 111, [(2R,6R,11R)-8-Methoxy-6,11-dimethyl-1,2,5,6-tetrahydro-4H-2,6-methano-benzo[d]azocin-3-yl]-(3-methyl-furan-2-yl)-methanone] and `Cc1ccoc1C(=O)N1CC[C@@]2(C)c3cc(O)ccc3C[C@@H]1[C@@H]2C` [Example 112, [(2R,6R,11R)-8-Hydroxy-6,11-dimethyl-1,2,5,6-tetrahydro-4H-2,6-methano-benzo[d]azocin-3-yl]-(3-methyl-furan-2-yl)-methanone] are within 1.5-fold of each other in IC50: 1600 nM for the first, 1230 nM for the second.

`C[C@H]1[C@H]2Cc3ccc(O)cc3[C@]1(C)CCN2C(=O)c1ccco1` [Example 113, Furan-2-yl-[(2R,6R,11R)-8-hydroxy-6,11-dimethyl-1,2,5,6-tetrahydro-4H-2,6-methano-benzo[d]azocin-3-yl]-methanone] and `CC1(C)[C@H]2Cc3c(O)cccc3[C@]1(C)CCN2C(=O)c1cc2ccccc2[nH]1` [Example 116, [(2R,6S)-10-Hydroxy-6,11,11-trimethyl-1,2,5,6-tetrahydro-4H-2,6-methano-benzo[d]azocin-3-yl]-(1H-indol-2-yl)-methanone] are within 1.5-fold of each other in IC50: 3630 nM for the first, 3850 nM for the second.

With `CCN(CC)Cc1ccc(C(=O)N2CC[C@@]3(C)c4cccc(O)c4C[C@@H]2C3(C)C)cc1` [Example 119, (4-Diethylaminomethyl-phenyl)-[(2R,6S)-10-hydroxy-6,11,11-trimethyl-1,2,5,6-tetrahydro-4H-2,6-methano-benzo[d]azocin-3-yl]-methanone] the IC50 was 1550 nM.

Same assay, conditions: 1 hour at 37° C., pH 6.0, NADPH 200 μM, cortisone 80 nM, inhibition relative to carbenoxolone signal, read-out: 11β-HSD IC50

First: CC12CCN(C(=O)c3ccc4nc[nH]c4c3)C(CCc3ccccc31)C2 (centres unmarked) [Example 98, (3H-Benzoimidazol-5-yl)-(1-methyl-11-aza-tricyclo[8.3.1.0*2,7*]tetradeca-2,4,6-trien-11-yl)-methanone]
Second: O=C(c1ccc2nc[nH]c2c1)N1CCC2CC1c1ccc(O)cc12 (centres unmarked) [Example 100, (3H-Benzoimidazol-5-yl)-(4-hydroxy-9-aza-tricyclo[6.3.1.0*2,7*]dodeca-2,4,6-trien-9-yl)-methanone]
The IC50 of the first is 4.5-fold lower: 125 nM for the first, 564 nM for the second. The first is the more potent here.

`COc1ccc2c(c1)C1CCN(C(=O)c3ccc4nc[nH]c4c3)C2C1` (centres unmarked) [Example 99, (3H-Benzoimidazol-5-yl)-(4-methoxy-9-aza-tricyclo[6.3.1.0*2,7*]dodeca-2,4,6-trien-9-yl)-methanone] showed an IC50 of 285 nM.

Source: US8859580B2 (Boehringer Ingelheim International GmbH, priority 2007, dated 2014)
